Patent publication US9066912B2, “Drug-enhanced adhesion prevention” (Ethicon, Inc., priority 2003, dated 2015)
“And” between values parts separate entries of the source, which are not always exact repeats. Equal values may be shown once. “Also recorded” adds a separate entry of the source.

What was measured:
[1] = test system: adhesion formation after peritoneal surgery (sidewall injury); assay: Rabbit peritoneal sidewall adhesion model; assay type: in vivo; design: key to Adhesion Tenacity: 0: No adhesions; 1: mild, easily dissectible adhesions; 2: moderate adhesions; non-dissectible, does not tear organ; 3: dense adhesions; non-dissectible, tears when removed; conditions: for mean adhesion area percentage: placebo control 100±0; for Adhesion Area Percentage / Adhesion Tenacity: individual animals; for efficacy in reducing post-operative adhesions: summary of the examples
Experimental: Multiple studies to confirm the efficacy of Tranilast in the reduction or inhibition of adhesion formation after peritoneal surgery were performed using a sidewall adhesion model.
(§1) In the peritoneal sidewall model, rabbits were pre-anesthetized with 1.2 mg/kg acetylpromazine and anesthetized with a mixture of 55 mg/kg ketamine hydrochloride and 5 mg/kg xylazine intramuscularly. Following preparation for sterile surgery, a midline laparotomy was performed. A 3 cm×5 cm area of peritoneum and transversus abdominis muscle was removed on the right lateral abdominal wall. The cecum was exteriorized and digital pressure was exerted to create subserosal hemorrhages (trauma and loss of blood flow) over all cecal surfaces. The cecum was then returned to its normal anatomic position. Tranilast contained in a delivery vehicle as described below was placed in an Alzet® miniosmotic pump (Alza Corporation, Palo Alto, Calif.) to allow continuous release of the molecule through the postsurgical interval. The Alzet miniosmotic pump was placed in the subcutaneous space and a delivery tube connected the pump with the site of injury at the sidewall. Only the delivery vehicle was placed in the pump of control rabbits. The abdominal wall and skin were closed in a standardized manner.
After 21 days, the rabbits were sacrificed and the percentage of the area of the sidewall injury that was involved in adhesions was determined. In addition, the tenacity of the adhesion formed was scored using a system as follows:
With the sidewall model, an initial score to represent the overall extent of adhesions is given (0 to 3).
The percentage of a surface of the sidewall involved in adhesions to various organs are given in the tables below to quantify the overall adhesion score. A reduction in the area and the tenacity of the adhesions would be considered beneficial and efficacious.
The efficacy of Tranilast in inhibiting adhesion formation was evaluated using a single pump, filled with one of three dosage levels of mg of Tranilast per ml of delivery vehicle (0.625 mg/ml, 6.25 mg/ml or 62.5 mg/ml), or placebo control (70% Polyethylene glycol 400, 20% Tween 80, 10% N,N-dimethylacetamide (DMAC)). The drug was placed in an Alzet miniosmotic pump and delivered over 7 days at a rate of 10 microliter/hr. The animals were sacrificed after 21 days.
Following the procedure described in Example 1, Tranilast, at one of three dosage levels (0.625, 6.25 or 62.5 mg Tranilast/ml vehicle), and a placebo control (70% Polyethylene glycol 400, 20% Tween 80, 10% N,N-dimethylacetamide (DMAC)) was delivered over 7 days at a rate of 10 microliter/hr.
After 7 days, animals received anesthesia and a small incision was made in the skin after preparation for aseptic surgery. The pump was then replaced with a new pump and drug or placebo was delivered over a second period of 7 days at a rate of 10 microliter/hr.
After 7 more days, some of the animals received anesthesia and a second small incision was made in the skin after preparation for aseptic surgery. Again, the pump was replaced with another new pump and drug or placebo was delivered over a third period of 7 days at a rate of 10 microliter/hr.
All animals were sacrificed after 21 days.
Groups of animals received either oral dosing, or local delivery of Tranilast, or placebo control. In the animals that received local delivery, a single pump, filled with placebo (70% Polyethylene glycol 400, 20% Tween 80, 10% N,N-dimethylacetamide (DMAC)), or Tranilast (6.25 mg/ml), at 10 microliter/hour over 7 days starting with the day of surgery, was placed in the subcutaneous space. Certain animals received oral dosing (approximately 60 mg/kg). Oral dosing was either pre-operatively (once a day for the 5 days prior to surgery, with the last dose given 2 hours prior to surgery) or, in one group, pre- and post-operatively (from day 2 through day 21 post-surgery). For further clarification, the treatment groups are shown below.

[2] = Necropsy observations in the rabbit sidewall adhesion studies; assay type: in vivo; design: key to mild inflammation with granulomas (mark at adhesion tenacity): *: did have mild inflammation with the presence of granulomas; conditions: for mild inflammation with granulomas (mark at adhesion tenacity): individual animals, also seen in vehicle treated animals
Experimental: as §1
The animals whose adhesion tenacities are marked by (*) did have mild inflammation with the presence of granulomas. The variability in the results may be due to a localized inflammation in […]. As the response was present in the vehicle treated animals, the inflammatory response may be due to prolonged administration of this vehicle. Therefore, the efficacy results might have been underestimated in light of the possible presence of a prolonged inflammatory response.

[3] = test system: TGF-β secretion, collagen synthesis, or cellular proliferation; conditions: any of the cellular assays tested to date, e.g. TGF-β secretion; cited from earlier work
[4] = Example 1, 0.625 mg/ml local via pump, 10 microliter/hr over 7 days, sacrifice after 21 days
[5] = Example 1, 6.25 mg/ml local via pump, 10 microliter/hr over 7 days, sacrifice after 21 days
[6] = Example 1, 62.5 mg/ml local via pump, 10 microliter/hr over 7 days, sacrifice after 21 days
[7] = Example 3, oral 60 mg/kg 5 days pre-operatively and 6.25 mg/ml topically (pump, 7 days), 60 mg/kg
[8] = Example 3, oral 60 mg/kg, 5 days pre-operatively and 21 days post-operatively, no pump
[9] = Example 2, 2 and 3 week local dosing
[10] = Example 3, oral and/or local dosing

In the case of `COc1ccc(C=CC(=O)Nc2ccccc2C(=O)O)cc1OC` [Tranilast, N-(3,4-dimethoxycinnamoyl) anthranilic acid], the “mean adhesion area percentage” value ([1]; Example 1, 0.625 mg/ml local, 1 week dosing, p=0.078) was 82.9±8.1%, the “mean adhesion area percentage” value ([1]; Example 1, 6.25 mg/ml local, 1 week dosing, p<0.001) was 67.1±7.1% and the “mean adhesion area percentage” value ([1]; Example 1, 62.5 mg/ml local, 1 week dosing, p=0.065) was 78.6±9.6%. For the same compound, the “tenacity of the adhesions formed (analysis of variance on the ranks)” value (“tenacity of the adhesions formed” for short) ([1]; Example 1, 1 week local dosing, all doses) was “significant reductions in the tenacity of the adhesions”, the “area of adhesion formation relative to the control” value ([1]; Example 1, 1 week local dosing, all doses (0.625, 6.25, 62.5 mg/ml)) was “reduced the area of adhesion formation” and the “Adhesion Area Percentage” value [1, 4] was 100% (4×) and 60% (3×). The “Adhesion Tenacity” value [1, 4] was 2 (3×) and 1 (3×) and 3, the “Adhesion Area Percentage” value [1, 5] was 70% (2×) and 100% and 80% and 50% (3×) and the “Adhesion Tenacity” value [1, 5] was 1 (5×) and 2 (2×). The “Adhesion Area Percentage” value [1, 6] was 100% (3×) and 70% (2×) and 30% and 80%, the “Adhesion Tenacity” value [1, 6] was 2 (3×) and 1 (3×) and 3 and the “mean adhesion area percentage” value ([1]; Example 2, 0.625 mg/ml local, 2 weeks) was 75.1±14.5%. For the same compound, the “mean adhesion area percentage” value ([1]; Example 2, 0.625 mg/ml local, 3 weeks) was 48.6±8.8%, the “mean adhesion area percentage” value ([1]; Example 2, 6.25 mg/ml local, 2 weeks) was 78.8±12.0% and the “mean adhesion area percentage” value ([1]; Example 2, 6.25 mg/ml local, 3 weeks) was 77.1±12.1%. The “mean adhesion area percentage” value ([1]; Example 2, 62.5 mg/ml local, 2 weeks) was 72.5±9.8%, the “mean adhesion area percentage” value ([1]; Example 2, 62.5 mg/ml local, 3 weeks) was 64.3±10.9% and the “tenacity of the adhesions formed” value ([1]; Example 2, 2 and 3 week local dosing, all doses) was “significant reductions in the tenacity of the adhesions”. The “adhesion formation relative to placebo control” value ([1]; Example 2, 2 and 3 week local dosing, significant at the high dose at two weeks and at all doses at 3 weeks) was “reductions in adhesion formation at all doses of drug and at both time points”, the “Adhesion Area Percentage” value ([1]; Example 2, 0.625 mg/ml local via pump for 2 weeks (pump replaced at day 7), sacrifice after 21 days) was 50% and 100% (4×) and 80% and 0% and the “Adhesion Tenacity” value ([1]; Example 2, 0.625 mg/ml local via pump for 2 weeks, sacrifice after 21 days) was 1 (5×) and 0 and 2. The “Adhesion Area Percentage” value ([1]; Example 2, 0.625 mg/ml local via pump for 3 weeks (pump replaced at days 7 and 14), sacrifice after 21 days) was 10% and 50% (3×) and 80% and 30% and 70%, the “Adhesion Tenacity” value ([1]; Example 2, 0.625 mg/ml local via pump for 3 weeks, sacrifice after 21 days) was 1 (6×) and 2 and the “Adhesion Area Percentage” value ([1]; Example 2, 6.25 mg/ml local via pump for 2 weeks (pump replaced at day 7), sacrifice after 21 days) was 100% (4×) and 70% and 0% and 80% (2×). For the same compound, the “Adhesion Tenacity” value ([1]; Example 2, 6.25 mg/ml local via pump for 2 weeks, sacrifice after 21 days) was 1 (6×) and 0 and 2, the “Adhesion Area Percentage” value ([1]; Example 2, 6.25 mg/ml local via pump for 3 weeks (pump replaced at days 7 and 14), sacrifice after 21 days) was 70% and 100% (4×) and 20% and 50% and the “Adhesion Tenacity” value ([1]; Example 2, 6.25 mg/ml local via pump for 3 weeks, sacrifice after 21 days) was 1 (5×) and 2 (2×). For the same compound, the “Adhesion Area Percentage” value ([1]; Example 2, 62.5 mg/ml local via pump for 2 weeks (pump replaced at day 7), sacrifice after 21 days) was 40% and 80% and 100% (3×) and 30% and 60% and 70%, the “Adhesion Tenacity” value ([1]; Example 2, 62.5 mg/ml local via pump for 2 weeks, sacrifice after 21 days) was 1 (6×) and 2 (2×) and the “Adhesion Area Percentage” value ([1]; Example 2, 62.5 mg/ml local via pump for 3 weeks (pump replaced at days 7 and 14), sacrifice after 21 days) was 50% (2×) and 40% and 30% and 100% (2×) and 80%. For the same compound, the “Adhesion Tenacity” value ([1]; Example 2, 62.5 mg/ml local via pump for 3 weeks, sacrifice after 21 days) was 1 (6×) and 2, the “mean adhesion area percentage” value ([1]; Example 3, 6.25 mg/ml local only, p=0.039) was 72.9±11.7% and the “tenacity of the adhesions formed” value ([1]; Example 3, all groups of animals that received the drug) was “significant reductions in the tenacity of the adhesions”. For the same compound, the “area of adhesion formation” value ([1]; Example 3, all groups that received local delivery (Tables 13 and 16)) was “reductions in the area of adhesion formation”, the “Adhesion Tenacity” value ([1]; Example 3, 6.25 mg/ml local via pump over 7 days, no oral dosing) was 1 and the “Adhesion Area Percentage” value ([1]; Example 3, 6.25 mg/ml local via pump, 10 microliter/hour over 7 days, no oral dosing) was 100% (2×) and 60% and 80% (3×) and 10%. The “Adhesion Area Percentage” value [1, 7] was 80% (2×) and 0% and 50% and 60% and 10%, the “Adhesion Tenacity” value [1, 7] was 1 (5×) and 0 and the “Adhesion Area Percentage” value ([1]; Example 3, oral 60 mg/kg 5 days pre-operatively and placebo topically (pump)) was 100%. For the same compound, the “Adhesion Tenacity” value ([1]; Example 3, oral 60 mg/kg 5 days pre-operatively and placebo topically (pump), 60 mg/kg) was 2 (4×) and 1 (2×), the “Adhesion Area Percentage” value [1, 8] was 100% and the “Adhesion Tenacity” value [1, 8] was 2. The “area of adhesion formation / inhibition of adhesion formation” value ([1]; Example 3, oral dosing alone, pre-operatively or pre- and post-operatively (Tables 14 and 15)) was “did not reduce the area of adhesion formation; also recorded: no inhibition of adhesion formation”, the “mean adhesion area percentage” value ([1]; Example 3, oral pre-operative and post-operative, no local) was 100±0% and the “mean adhesion area percentage” value ([1]; Example 3, oral pre-operative with topical 6.25 mg/ml, p=0.002) was 46.7±14.1%. For the same compound, the “mean adhesion area percentage” value ([1]; Example 3, oral pre-operative with topical placebo) was 100±0%, the “inhibition of adhesion formation” value ([1]; Example 3, pre-operative oral administration in conjunction with local administration) was “did result in inhibition of adhesion formation” and the “efficacy in reducing post-operative adhesions” value ([1]; delivered to the site via a local administrative route) was “efficacious”. For the same compound, the “efficacy in reducing post-operative adhesions” value ([1]; delivered via a systemic route) was “no efficacy was seen”, the “clinical signs at necropsy” value ([2]; Example 1, 1 week local dosing) was “no clinical signs” and the “inflammation or granulomas at the site of administration” value (“inflammation or granulomas at the site” for short) ([2]; Example 1, 1 week local dosing) was “no inflammation or granulomas were observed”. The “clinical signs at necropsy” value [2, 9] was “no clinical signs”, the “inflammation or granulomas at the site” value [2, 9] was “no inflammation or granulomas were observed grossly at the site of administration in the majority of animals” and the “mild inflammation with granulomas (mark at adhesion tenacity)” value (shortened to “mild inflammation with granulomas”) ([2]; Example 2, 0.625 mg/ml local for 2 weeks) was “*”. The “mild inflammation with granulomas” value ([2]; Example 2, 6.25 mg/ml local for 2 weeks) was “*”, the “mild inflammation with granulomas” value ([2]; Example 2, 6.25 mg/ml local for 3 weeks) was “*” and the “mild inflammation with granulomas” value ([2]; Example 2, 62.5 mg/ml local for 2 weeks) was “*”. For the same compound, the “mild inflammation with granulomas” value ([2]; Example 2, 62.5 mg/ml local for 3 weeks) was “*”, the “clinical signs at necropsy” value [2, 10] was “no clinical signs” and the “inflammation or granulomas at the site” value [2, 10] was “no inflammation or granulomas were observed”. The “IC50 values in cellular assays” value [3] was “does not exhibit potent IC50 values”.
